According to patent publication US10245328B2, “Gadolinium complex comprising DO3A-tranexamic acid conjugate” (KYUNGPOOK NATIONAL UNIVERSITY INDUSTRY-ACADEMIC COOPERATION …, priority 2014, dated 2019):

Key:
[1] = Relaxation rate measurement (R1, R2) in PBS and in PBS solution of HSA; assay type: physicochemical; details: 293K
Experimental: T1 measurement is carried out using an inversion recovery method at 1.5 T (64 MHz) in a variable inverse time (TI). MR images are obtained for 35 different TI values in a range of 50 to 1750 ms. A T1 relaxation time is obtained from a nonlinear least-squares fit of a signal strength measured at each TI value. For a T2 CPMG (Carr-Purcell-Meiboon-Gill) pulse sequence measurement, the measurement is adapted to a multi spin-echo measurement. 34 images are obtained at 34 different echo time (TE) values in a range of 10 to 1900 ms. The T2 relaxation time is obtained from a nonlinear least-squares fit of mean pixel values for multi spin-echo measurement at each echo time. Next, a relaxation rate (R1 and R2) is calculated as an inverse of a relaxation time per mM. The determined relaxation time (T1 and T2) and relaxation rate (R1 and R2) are subjected to an image processing to get a relaxation time map and relaxation rate respectively.
For comparison between the complexes 2a-e, there is no noticeable difference in R1's. The measurement is carried out for two different media, that is, PBS (pH=7.4) and PBS solution of HAS in order to indicate which blood-pool effect is expressed by the complexes 2a-e.

[2] = Isothermal titration calorimeter (ITC), binding of Gd^3+ to ligand; details: 25° C., pH = 4.5, read-out: Kd (dissociation constant)
Experimental: In order to quantify binding isotherms of paramagnetic metal ions Gd^3+ with a ligand solution, an ITC test is executed at a VP-ITC isothermal titration microcalorimeter (Microcal, USA). Data collection, analysis and plotting are executed with help of software package Origin, version 8.0 from Microcal. A sample cell has a 1.43 mL volume. The cell is filled with a water-soluble buffer solution of the above compound 1a-e ligand (0.2 mM). A water-soluble buffer solution of Gd^3+ (1.0 mM) is input into a 300 μL continuous agitated (300 rpm) syringe and 10 μL aliquots thereof is injected into the cell. At a 3-mins interval, the cell is delivered over 20 s. Data points are collected on a 2 s basis. The measurement is executed at 25° C. All titrations are executed three times to secure data consistency and solution stability. These titration isotherms are integrated to find out an enthalpy change at each injection. In order to fit well with two mathematically different sets of site models, the titration isotherms are analyzed. Via a calorie measurement, parameters including a binding constant (Ka), a change in enthalpy (ΔH), a stoichiometry of binding (N) are calculated. Next, a free energy (ΔG) and an entropy change (ΔS) are calculated using a following complexation equation: Mn++nL↔MLn:ΔG=−RT·InKa=ΔH-TΔS,
where, R indicates a universal gas constant; T is Kelvin temperature.

[3] = PBS solution of 0.67 mM HSA, 64 MHz

| SMILES | Kd [2] [µM] | also measured |
| --- | --- | --- |
| O=C([O-])CN1CCN(CC(=O)[O-])CCN([C@H](CO)[C@H](O)CO)CCN(CC(=O)[O-])CC1.[Gd+3] (racemic) [Gadovist, Gd-BT-DO3A, reference compound] | – | R1 ([1]; PBS pH 7.4, 64 MHz (1.5 T)): 4.38 ± 0.15 mM⁻¹ s⁻¹; R2 ([1]; PBS pH 7.4, 64 MHz (1.5 T)): 4.27 ± 0.30 mM⁻¹ s⁻¹; R1 in 0.67 mM HSA [1, 3]: 4.81 ± 0.17 mM⁻¹ s⁻¹; R2 in 0.67 mM HSA [1, 3]: 5.54 ± 0.24 mM⁻¹ s⁻¹ |
| CCOC(=O)C1CCC(CNC(=O)CN2CCN(CC(=O)O)CCN(CC(=O)O)CCN(CC(=O)O)CC2)CC1 (centres unmarked) [1a] | 19.3 | – |
| O=C(O)CN1CCN(CC(=O)O)CCN(CC(=O)NCC2CCC(C(=O)O)CC2)CCN(CC(=O)O)CC1 (centres unmarked) [1b] | 3.98 | – |
| NCCNC(=O)C1CCC(CNC(=O)CN2CCN(CC(=O)O)CCN(CC(=O)O)CCN(CC(=O)O)CC2)CC1 (centres unmarked) [1c] | 16.8 | – |
| NC1CCC(NC(=O)CN2CCN(CC(=O)O)CCN(CC(=O)O)CCN(CC(=O)O)CC2)CC1 (centres unmarked) [1d] | 29.3 | – |
